Results taken from patent EP0103895A2, “Novel hydroxylamine derivatives, production and use thereof” (MEIJI SEIKA KABUSHIKI KAISHA, priority 1982, dated 1984).
“And” between values parts separate entries of the source, which are not always exact repeats. Equal entries are not always repeated. Where two headings read alike, the source gives them in different places.

What was measured:
[1] = test system: fowl roundworm (As. galli); test: Anthelmintic test in chickens artificially infected with fowl roundworm, compound added to feed, E.P.G. and worm count up to 21st day (Test Examples A2, B2, C2, D2); assay type: in vivo, Ascaridia galli; settings: Ascaridia galli, 504 h, read-out: Anthelmintic effect; for inhibition in vivo at 10 ppm: 10 ppm added to feed
Procedure: Chickens artificially infected with fowl roundworm (As. galli) were employed in groups each of two chickens.
Fecal matter testing was conducted before initiation of the test and on the 7th, 14th and 21st day after initiation of the test. Reduction in worm egg number was examined by calculating E.P.G. (worm eggs per 1 g of fecal matter), and the number of discharged worm bodies and the number of worm bodies remaining in the enteron when the chicken was killed on 21st day were counted to determine the anthelmintic percentage, from which the anthelmintic effect was judged.

[2] = test system: Liver fluke; Fasciola hepatica (F. hepatica); test: Test of anthelmintic effect against rat infected experimentally with liver fluke (Test Examples A11, B11, C11, D11); assay type: in vivo; parameters: key to Presence or absence of fluke egg in fecal matter On 21st day after the last administration: +: indicates detection of fluke egg; -: indicates no detection; settings: for Condition of fluke body: autopsy, liver, "Denatured" = fluke body is alive but a part of fluke body has changed
Excerpt: Twenty-eight (28) rats were employed in fourteen groups each of two rats, each rat being infected with 5 metacercariae of Liver fluke; Fasciola he^patica (F.. hepatica) and confirmed to have worm eggs on the 75th day after infection according to fecal matter testing.
Judgement of the effect was made by the presence or absence of the worm gees in the fecal matter on the 21st day after the last administration and by examination according to autopsis as to whether the worm bodies were dead or alive in the liver.
The same as that in Test Example All, but eight (8) rats were employed by grouping them into groups each of two rats, each rat being infected with 5 metacercariae of liver fluke and confirmed to have fluke eggs on the 75th day after infection according to fecal matter testing.
The compounds provided for the tests were Compound Nos. Bl, B8 and B19.
The same as that in Test Example All, but six (6) rats were employed by grouping them into groups each of two rats, each rat being infected with 5 metacercariae of Fasciola hepatica and confirmed to have worm eggs on the 75th day after infection according to fecal matter testing.
The compounds provided for the tests were Compound Nos. C2 and C6.
The same as that in Test Example All, but the compounds provided for tests were Compound Nos. D14, D15 and D16.

[3] = test system: fowl roundworm (Ascaridia galli); test: Anthelmintic test in chickens artificially infected with fowl roundworm, single oral dose in gelatin capsule, worm bodies counted within 48 hours (Test Examples A1, B1, C1, D1); assay type: in vivo; settings: Ascaridia galli, po, 48 h, read-out: Anthelmintic effect after 48 hours; for inhibition in vivo at 30 mg/kg: 30 mg/Kg oral in gelatin capsule
Procedure: Chickens infected artificially with fowl roundworm (Ascaridia galli) were employed in groups each consisting of three chickens. Fecal matter testing was conducted before administration of medicine to confirm infection with the worm. The quantity of the compound provided for testing was 10 mg and 20 mg per Kg of body weight, which was orally administered each in a gelatin capsule to the chicken. The number of worm bodies discharged within 48 hours after administration of medicine was counted, the chicken was killed after 48 hours and the number of worm bodies remaining in the enteron was counted to determine the anthelmintic percentage, wherefrom the antihelmintic effect was judged.
The same as that in Test Example Al.
The same as that in Test Example Al except that the compound provided for testing was in quantities of 30 mg and 50 mg per Kg of body weight, which were orally administered to the chickens in gelatin capsules.
The same as that in Test Example Al, except that the compounds provided for testing were used in quantities of 15 mg and 30 mg per Kg of body weight, which were orally administered each in a gelatin capsule to the chicken.

[4] = test system: swine Oesophagostomum (Oesophagostomum dentatum); test: Test of anthelmintic effect against swine Oesophagostomum in naturally infected pigs, E.P.G. on 7th day (Test Examples A8, B8, C8, D8); assay type: in vivo
Procedure: Six pigs infected with swine Oesophagostomum (naturally infected pigs) were employed by grouping them into groups each of two pigs.
As a control, only gelatin capsules were administered orally to the two pigs.
Before administration and on the 7th day after administration, fecal matter testing was conducted to calculate the E.P.G., and the anthelmintic effect was judged by the changing of the E.P.G. to negative.

[5] = test system: fowl roundworm (As. galli); test: Anthelmintic test in chickens infected with fowl roundworm, single oral dose of 40 mg per Kg, worm bodies counted within 24 hours (Test Example E1); assay type: in vivo, Ascaridia galli; settings: 40 mg per Kg oral in gelatin capsule; for inhibition in vivo at 40 mg/kg: Ascaridia galli, 24 h, chicken No.1, read-out: Anthelmintic effect after one day
Procedure: Chickens infected with fowl roundworm (As. galli) were employed in groups each consisting of five chickens. The compound provided for testing was orally administered in a quantity of 40 mg per Kg of body weight to each chicken in a gelatin capsule. The number of worm bodies discharged within 24 hours after administration of the medicine was counted. Then the chicken was killed, and the number of worm bodies remaining in the enteron was counted to determine the anthelmintic percentage, wherefrom the anthelmintic effect was judged.

[6] = test system: fowl roundworm (As. galli); test: Anthelmintic test in chickens infected with fowl roundworm, compound added to feed at 250 ppm and 1,000 ppm, E.P.G. and worm count on 5th day (Test Example E2); assay type: in vivo, Ascaridia galli; settings: for E.P.G. after 5 days: worm egg number in 1 g of fecal matter; for anthelmintic effect / inhibition in vivo at 250 ppm / inhibition in vivo at 1000 ppm: 5th day; for inhibition in vivo at 250 ppm / inhibition in vivo at 1000 ppm: Ascaridia galli, feed or water, 120 h, read-out: Anthelmintic effect
Procedure: Chickens infected with fowl roundworm (As. galli) were employed in groups each of two chickens.
The compound provided for the test was dissolved in a small amount of ethyl alcohol and adsorbed on defatted rice bran and added to chicken feed at levels of 250 ppm and 1,000 ppm. As control, a feed containing no such compound was employed.
Fecal matter testing was conducted before initiation of the test and on the 5th day after initiation of the test. The reduction in worm egg count was examined by calculating the E.P.G. (worm egg number in 1 g of fecal matter). The number of discharged worm bodies and the number of worm bodies remaining in the enteron when the chicken was killed on 5th day were counted to determined the anthelmintic percentage, from which the anthelmintic effect was judged.

[7] = po, chickens, worm count on 21st day, one value per chicken
[8] = po, chickens, 50 ppm added to feed, worm count on 21st day, one value per chicken
[9] = rats, 50 mg/Kg x 5 orally, one value per rat
[10] = rats, 50 mg/Kg x 5 orally, one value per rat, 50 mg/kg
[11] = 1000 ppm in feed, chicken No. 1
[12] = 1000 ppm in feed, chicken No. 2

Compound: C#CCN(OCC=C)C(=O)CCCC [Compound A7, N-propargyl-N-valeroyl-O-allylhydroxylamine]
- inhibition in vivo at 10 ppm [1, 7]: 80 to 90%
- inhibition in vivo at 50 ppm [1, 8]: 100%
- Condition of fluke body [2, 9]: dead
- Presence or absence of fluke egg in fecal matter On 21st day after the last administration [2, 9]: -

Compound: C#CCN(OCC=C)C(=O)c1ccccc1 [Compound A11, N-propargyl-N-benzoyl-O-allylhydroxylamine]
- inhibition in vivo at 10 ppm [1, 7]: 80 to 90%
- inhibition in vivo at 50 ppm [1, 8]: 100%
- Condition of fluke body [2, 9]: dead
- Presence or absence of fluke egg in fecal matter On 21st day after the last administration [2, 9]: -

Compound: C#CCNOCC#C [Compound D15]
- inhibition in vivo at 15 mg/kg ([3]; chicken, 15 mg/Kg oral in gelatin capsule, chickens No.1-3): 100%
- inhibition in vivo at 30 mg/kg ([3]; chicken, chickens No.1-3): 100%
- inhibition in vivo at 25 ppm ([1]; feed or water, chicken, 25 ppm in feed): 80 to 90%
- inhibition in vivo at 50 ppm ([1]; feed or water, chicken, 50 ppm in feed): 100%
- Condition of fluke bodies ([2]; rat, 50 mg/Kg x 5): dead
- Presence or absence of fluke egg in fecal matter On 21st day after the last administration ([2]; rat, 50 mg/Kg x 5): -
- anthelmintic effect ([2]; rats, five administrations in a dose of 50 mg/Kg each): marked anthelmintic effect

Compound: C#CCN(OCC=C)C(=O)CCCCCCC/C=C\CCCCCCCC [Compound A8, N-propargyl-N-oleoyl-O-allylhydroxylamine]
- inhibition in vivo at 10 ppm [1, 7]: 100%
- inhibition in vivo at 50 ppm [1, 8]: 100%
- Condition of fluke body [2, 9]: dead
- Presence or absence of fluke egg in fecal matter On 21st day after the last administration [2, 9]: -

Compound: C#CCN(OCC=C)C(=O)CCCCCCCCCCCCCCCCC [Compound A9, N-propargyl-N-stearoyl-N-allylhydroxylamine]
- inhibition in vivo at 10 ppm [1, 7]: 100%
- inhibition in vivo at 50 ppm [1, 8]: 100%
- Condition of fluke body [2, 9]: dead
- Presence or absence of fluke egg in fecal matter On 21st day after the last administration [2, 9]: -

Compound: C#CCN(OCC)C(C)=O [Compound A2, N-propargyl-N-acetyl-O-ethylhydroxylamine]
- inhibition in vivo at 10 ppm [1, 7]: 80 to 90%
- inhibition in vivo at 50 ppm [1, 8]: 100%
- Condition of fluke body [2, 9]: dead
- Presence or absence of fluke egg in fecal matter On 21st day after the last administration [2, 9]: -

Compound: C#CCNOCCCC [Compound D12]
- inhibition in vivo at 30 mg/kg ([3]; chicken, chickens No.1-3): 100%
- Change of E.P.G. 7th day ([4]; pig, Oesophagostomum dentatum, 20 mg/Kg, one administration): 0
- Change of E.P.G. Before administration ([4]; pig, Oesophagostomum dentatum, before 20 mg/Kg (baseline)): 1,600 and 2,100
- anthelmintic effect ([4]; pigs, one administration of 20 mg/Kg): marked anthelmintic effect

Compound: C#CCN(C=O)OCC=C [Compound A13, N-propargyl-N-formyl-0-allylhydroxylamine]
- inhibition in vivo at 10 mg/kg ([3]; chickens, 10 mg/Kg orally in gelatin capsule, one value per chicken (No.1-3)): 100%
- inhibition in vivo at 20 mg/kg ([3]; chickens, 20 mg/Kg orally in gelatin capsule, one value per chicken (No.1-3)): 100%
- inhibition in vivo at 10 ppm [1, 7]: 80 to 90%
- inhibition in vivo at 50 ppm [1, 8]: 100%
- Condition of fluke body [2, 10]: denatured and dead
- Presence or absence of fluke egg in fecal matter On 21st day after the last administration [2, 9]: -

Compound: C#CCN(OCC=CC)C(C)=O [Compound A4, N-propargyl-N-acetyl-O-crotylhydroxylamine]
- inhibition in vivo at 10 ppm [1, 7]: 80 to 90%
- inhibition in vivo at 50 ppm [1, 8]: 100%
- Condition of fluke body [2, 9]: dead
- Presence or absence of fluke egg in fecal matter On 21st day after the last administration [2, 9]: -

Compound: C#CCON(CC#C)C(=O)c1ccccc1 [Compound E7, N,O-dipropargyl-N-benzoylhydroxylamine]
- inhibition in vivo at 40 mg/kg [5]: 100%
- Anthelmintic effect after one day ([5]; chicken No.2): +++ (100%)
- Anthelmintic effect after one day ([5]; chicken No.3): +++ (100%)
- Anthelmintic effect after one day ([5]; chicken No.4): +++ (100%)
- Anthelmintic effect after one day ([5]; chicken No.5): +++ (100%)
- E.P.G. after 5 days ([6]; 250 ppm in feed, chicken No. 1): 0
- anthelmintic effect ([6]; 250 ppm in feed, chicken No. 2): +++ (100%)
- E.P.G. after 5 days ([6]; 250 ppm in feed, chicken No. 2): 0
- E.P.G. after 5 days [6, 11]: 0
- anthelmintic effect [6, 12]: +++ (100%)
- E.P.G. after 5 days [6, 12]: 0
- inhibition in vivo at 250 ppm ([6]; 250 ppm in feed, chicken No. 1): 100%
- inhibition in vivo at 1000 ppm [6, 11]: 100%

Compound: C#CCN(OCC=C)C(=O)CCC [Compound A6, N-propargyl-N-butylyl-O-allylhydroxylamine]
- inhibition in vivo at 10 ppm [1, 7]: 100%
- inhibition in vivo at 50 ppm [1, 8]: 100%
- Condition of fluke body [2, 10]: dead and denatured
- Presence or absence of fluke egg in fecal matter On 21st day after the last administration [2, 9]: -

Compound: C#CCON(CC#C)C(=O)CCCC [Compound E4, N,O-dipropargyl-N-valerylhydroxylamine]
- inhibition in vivo at 40 mg/kg [5]: 100%
- Anthelmintic effect after one day ([5]; chicken No.2): +++ (100%)
- Anthelmintic effect after one day ([5]; chicken No.3): +++ (100%)
- Anthelmintic effect after one day ([5]; chicken No.4): +++ (100%)
- Anthelmintic effect after one day ([5]; chicken No.5): +++ (100%)
- E.P.G. after 5 days ([6]; 250 ppm in feed, chicken No. 1): 0
- anthelmintic effect ([6]; 250 ppm in feed, chicken No. 2): +++ (100%)
- E.P.G. after 5 days ([6]; 250 ppm in feed, chicken No. 2): 0
- E.P.G. after 5 days [6, 11]: 0
- anthelmintic effect [6, 12]: +++ (100%)
- E.P.G. after 5 days [6, 12]: 0
- inhibition in vivo at 250 ppm ([6]; 250 ppm in feed, chicken No. 1): 100%
- inhibition in vivo at 1000 ppm [6, 11]: 100%

Compound: C#CCN(OCC=C)C(=O)CC [Compound A5, N-propargyl-N-propionyl-0-allylhydroxylamine]
- inhibition in vivo at 10 ppm [1, 7]: 80 to 90%
- inhibition in vivo at 50 ppm [1, 8]: 100%
- Condition of fluke body [2, 9]: dead
- Presence or absence of fluke egg in fecal matter On 21st day after the last administration [2, 9]: -

Compound: C#CCON(CC#C)C(=O)CCCCCCC/C=C\CCCCCCCC [Compound E6, N,O-dipropargyl-N-oleoylhydroxylamine]
- inhibition in vivo at 40 mg/kg [5]: 100%
- Anthelmintic effect after one day ([5]; chicken No.2): +++ (100%)
- Anthelmintic effect after one day ([5]; chicken No.3): +++ (100%)
- Anthelmintic effect after one day ([5]; chicken No.4): +++ (100%)
- Anthelmintic effect after one day ([5]; chicken No.5): +++ (100%)
- E.P.G. after 5 days ([6]; 250 ppm in feed, chicken No. 1): 0
- anthelmintic effect ([6]; 250 ppm in feed, chicken No. 2): +++ (100%)
- E.P.G. after 5 days ([6]; 250 ppm in feed, chicken No. 2): 0
- E.P.G. after 5 days [6, 11]: 0
- anthelmintic effect [6, 12]: +++ (100%)
- E.P.G. after 5 days [6, 12]: 0
- inhibition in vivo at 250 ppm ([6]; 250 ppm in feed, chicken No. 1): 100%
- inhibition in vivo at 1000 ppm [6, 11]: 100%
